ChEMBL document CHEMBL3600363, “Discovery of potent, selective small molecule inhibitors of α-subtype of type III phosphatidylinositol-4-kinase (PI4KIIIα)” (Bioorg Med Chem Lett, 2015)

Key:
[1] = target: Phosphatidylinositol 4-kinase alpha (Homo sapiens, UniProt P42356); assay: Inhibition of N-terminal FLAG-tagged human full length recombinant PI4K3alpha using D-myo-phosphatidylinositol substrate and ATP incubated for 45 mins by ADP-Glo kinase Assay
[2] = target: Phosphatidylinositol 4-kinase beta (Homo sapiens, UniProt Q9UBF8); assay: Inhibition of N-terminal GST-tagged human full length recombinant PI4K3beta expressed in Sf9 cells using D-myo-phosphatidylinositol substrate and ATP incubated for 45 mins by ADP-Glo kinase Assay
[3] = target: Phosphatidylinositol 4,5-bisphosphate 3-kinase catalytic subunit alpha isoform (Homo sapiens, UniProt P42336); assay: Inhibition of PI3Kalpha (unknown origin) pre-incubated for 20 mins before phosphatidylinositol 4, 5-bisphosphate substrate addition by kinase-glo plus luminescence assay
[4] = target: Phosphatidylinositol 4,5-bisphosphate 3-kinase catalytic subunit beta isoform (Homo sapiens, UniProt P42338); assay: Inhibition of PI3Kbeta (unknown origin) pre-incubated for 20 mins before phosphatidylinositol 4, 5-bisphosphate substrate addition by kinase-glo plus luminescence assay
[5] = target: Phosphatidylinositol 4,5-bisphosphate 3-kinase catalytic subunit gamma isoform (Homo sapiens, UniProt P48736); assay: Inhibition of PI3Kgamma (unknown origin) pre-incubated for 20 mins before phosphatidylinositol 4, 5-bisphosphate substrate addition by kinase-glo plus luminescence assay
[6] = target: T1, Phosphatidylinositol 4,5-bisphosphate 3-kinase catalytic subunit delta isoform (Homo sapiens, UniProt O00329); assay: Inhibition of PI3Kdelta (unknown origin) pre-incubated for 20 mins before phosphatidylinositol 4, 5-bisphosphate substrate addition by kinase-glo plus luminescence assay
T1 sequence (O00329 whole entry): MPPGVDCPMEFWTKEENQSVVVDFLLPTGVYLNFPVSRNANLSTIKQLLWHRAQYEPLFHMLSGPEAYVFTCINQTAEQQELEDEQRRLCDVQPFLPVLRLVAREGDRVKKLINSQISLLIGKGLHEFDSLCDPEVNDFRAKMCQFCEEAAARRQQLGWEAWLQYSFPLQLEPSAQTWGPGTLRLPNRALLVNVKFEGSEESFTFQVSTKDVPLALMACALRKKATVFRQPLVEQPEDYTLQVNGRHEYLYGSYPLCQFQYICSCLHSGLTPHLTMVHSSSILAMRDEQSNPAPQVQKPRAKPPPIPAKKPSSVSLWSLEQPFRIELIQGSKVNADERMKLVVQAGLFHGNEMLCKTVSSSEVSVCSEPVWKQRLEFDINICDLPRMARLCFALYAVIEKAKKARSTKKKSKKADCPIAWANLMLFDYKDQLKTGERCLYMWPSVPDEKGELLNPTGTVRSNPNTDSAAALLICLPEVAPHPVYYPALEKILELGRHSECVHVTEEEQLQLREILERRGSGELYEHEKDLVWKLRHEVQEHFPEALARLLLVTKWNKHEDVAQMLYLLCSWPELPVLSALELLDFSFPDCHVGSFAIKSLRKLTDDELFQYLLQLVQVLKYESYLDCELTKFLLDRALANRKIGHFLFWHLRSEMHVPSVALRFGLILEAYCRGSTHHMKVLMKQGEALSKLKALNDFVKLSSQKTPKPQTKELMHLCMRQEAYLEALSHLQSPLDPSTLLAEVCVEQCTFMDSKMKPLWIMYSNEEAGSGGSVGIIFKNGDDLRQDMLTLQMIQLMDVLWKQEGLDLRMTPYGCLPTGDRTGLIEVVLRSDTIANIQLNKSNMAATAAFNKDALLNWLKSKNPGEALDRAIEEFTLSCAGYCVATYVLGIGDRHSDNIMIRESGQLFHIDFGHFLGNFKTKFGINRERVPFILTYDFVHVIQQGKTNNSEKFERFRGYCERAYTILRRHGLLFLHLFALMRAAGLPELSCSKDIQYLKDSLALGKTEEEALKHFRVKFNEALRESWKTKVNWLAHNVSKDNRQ

[7] = target: Phosphatidylinositol 4-phosphate 5-kinase type-1 gamma (Homo sapiens, UniProt O60331); assay: Inhibition of PIP5K1C (unknown origin) using D-myo-phosphatidylinositol 4-phosphate substrate and ATP by ADP-Glo kinase Assay
Chain of Phosphatidylinositol 4-phosphate 5-kinase type-1 gamma (O60331 whole entry): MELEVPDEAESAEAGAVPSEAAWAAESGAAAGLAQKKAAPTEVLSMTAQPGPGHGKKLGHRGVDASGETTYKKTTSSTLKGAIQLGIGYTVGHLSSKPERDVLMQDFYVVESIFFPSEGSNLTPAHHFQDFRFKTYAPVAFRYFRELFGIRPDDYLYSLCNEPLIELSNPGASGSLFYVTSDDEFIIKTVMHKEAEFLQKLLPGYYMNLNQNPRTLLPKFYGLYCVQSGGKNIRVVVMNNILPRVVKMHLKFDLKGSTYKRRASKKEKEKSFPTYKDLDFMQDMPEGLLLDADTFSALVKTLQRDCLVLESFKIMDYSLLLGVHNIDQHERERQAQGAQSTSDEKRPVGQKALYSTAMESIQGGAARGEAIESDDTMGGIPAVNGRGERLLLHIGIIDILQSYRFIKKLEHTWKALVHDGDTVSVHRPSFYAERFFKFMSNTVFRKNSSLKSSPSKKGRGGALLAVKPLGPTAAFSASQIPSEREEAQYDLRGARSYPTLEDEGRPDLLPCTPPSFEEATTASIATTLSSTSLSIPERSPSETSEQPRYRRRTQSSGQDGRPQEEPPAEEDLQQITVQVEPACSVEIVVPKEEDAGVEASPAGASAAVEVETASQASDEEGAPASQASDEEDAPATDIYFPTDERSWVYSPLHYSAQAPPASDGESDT

Chain of Phosphatidylinositol 4,5-bisphosphate 3-kinase catalytic subunit gamma isoform (P48736 whole entry, canonical isoform): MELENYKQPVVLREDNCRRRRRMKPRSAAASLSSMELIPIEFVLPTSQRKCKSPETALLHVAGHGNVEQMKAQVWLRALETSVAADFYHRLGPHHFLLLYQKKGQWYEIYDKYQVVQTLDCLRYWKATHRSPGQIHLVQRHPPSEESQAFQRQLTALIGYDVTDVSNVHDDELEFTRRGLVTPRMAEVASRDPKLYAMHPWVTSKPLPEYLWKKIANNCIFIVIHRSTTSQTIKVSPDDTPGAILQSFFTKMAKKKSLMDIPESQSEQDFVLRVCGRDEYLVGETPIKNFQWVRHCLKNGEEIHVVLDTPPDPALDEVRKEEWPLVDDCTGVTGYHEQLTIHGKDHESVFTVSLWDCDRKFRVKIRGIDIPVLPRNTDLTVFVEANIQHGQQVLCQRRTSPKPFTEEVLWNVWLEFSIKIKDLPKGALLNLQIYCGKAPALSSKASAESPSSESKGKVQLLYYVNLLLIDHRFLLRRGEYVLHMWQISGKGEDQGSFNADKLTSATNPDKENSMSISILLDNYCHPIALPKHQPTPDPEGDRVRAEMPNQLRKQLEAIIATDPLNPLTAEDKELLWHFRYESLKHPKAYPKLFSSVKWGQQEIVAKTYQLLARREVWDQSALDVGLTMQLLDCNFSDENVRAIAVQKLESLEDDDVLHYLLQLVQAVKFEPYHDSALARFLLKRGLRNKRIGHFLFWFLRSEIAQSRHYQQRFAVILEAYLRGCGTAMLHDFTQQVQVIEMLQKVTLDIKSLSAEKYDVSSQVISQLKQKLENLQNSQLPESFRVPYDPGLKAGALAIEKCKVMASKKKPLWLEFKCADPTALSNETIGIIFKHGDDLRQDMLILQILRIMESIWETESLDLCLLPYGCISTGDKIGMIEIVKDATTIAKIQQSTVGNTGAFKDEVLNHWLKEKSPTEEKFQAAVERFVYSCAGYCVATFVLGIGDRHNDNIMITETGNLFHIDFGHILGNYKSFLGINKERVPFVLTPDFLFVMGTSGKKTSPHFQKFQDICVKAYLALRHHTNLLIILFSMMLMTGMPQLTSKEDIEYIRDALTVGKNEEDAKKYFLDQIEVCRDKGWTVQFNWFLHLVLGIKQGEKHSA
Chain of Phosphatidylinositol 4,5-bisphosphate 3-kinase catalytic subunit beta isoform (P42338 whole entry, canonical isoform): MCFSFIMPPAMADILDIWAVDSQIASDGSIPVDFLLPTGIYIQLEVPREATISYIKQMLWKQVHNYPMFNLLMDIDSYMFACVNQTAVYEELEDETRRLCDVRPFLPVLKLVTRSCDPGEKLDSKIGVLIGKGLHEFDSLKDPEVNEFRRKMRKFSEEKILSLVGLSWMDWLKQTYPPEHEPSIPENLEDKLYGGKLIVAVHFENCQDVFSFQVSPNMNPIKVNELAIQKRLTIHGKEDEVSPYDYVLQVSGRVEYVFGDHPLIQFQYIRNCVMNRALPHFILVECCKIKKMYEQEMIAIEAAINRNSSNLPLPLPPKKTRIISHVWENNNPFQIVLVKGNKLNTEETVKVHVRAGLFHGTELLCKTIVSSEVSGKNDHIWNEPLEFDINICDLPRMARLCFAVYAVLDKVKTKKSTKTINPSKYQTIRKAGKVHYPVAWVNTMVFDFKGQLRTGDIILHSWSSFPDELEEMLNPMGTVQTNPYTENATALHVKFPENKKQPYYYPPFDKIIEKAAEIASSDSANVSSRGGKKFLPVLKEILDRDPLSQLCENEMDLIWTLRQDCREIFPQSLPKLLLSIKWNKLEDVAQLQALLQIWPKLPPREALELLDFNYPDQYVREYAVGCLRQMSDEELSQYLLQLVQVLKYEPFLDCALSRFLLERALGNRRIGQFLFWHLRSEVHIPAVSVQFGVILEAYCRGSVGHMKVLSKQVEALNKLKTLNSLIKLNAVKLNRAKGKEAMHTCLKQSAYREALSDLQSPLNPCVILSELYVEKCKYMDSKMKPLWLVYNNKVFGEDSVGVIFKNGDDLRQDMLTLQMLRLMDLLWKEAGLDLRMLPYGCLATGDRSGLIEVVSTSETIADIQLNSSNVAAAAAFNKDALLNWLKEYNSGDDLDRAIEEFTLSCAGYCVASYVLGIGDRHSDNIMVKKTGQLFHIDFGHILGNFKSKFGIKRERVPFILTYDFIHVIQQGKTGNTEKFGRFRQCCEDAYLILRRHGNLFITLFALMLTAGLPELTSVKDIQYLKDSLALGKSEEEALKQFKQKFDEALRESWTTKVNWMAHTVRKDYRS
Chain of Phosphatidylinositol 4-kinase alpha (P42356 whole entry): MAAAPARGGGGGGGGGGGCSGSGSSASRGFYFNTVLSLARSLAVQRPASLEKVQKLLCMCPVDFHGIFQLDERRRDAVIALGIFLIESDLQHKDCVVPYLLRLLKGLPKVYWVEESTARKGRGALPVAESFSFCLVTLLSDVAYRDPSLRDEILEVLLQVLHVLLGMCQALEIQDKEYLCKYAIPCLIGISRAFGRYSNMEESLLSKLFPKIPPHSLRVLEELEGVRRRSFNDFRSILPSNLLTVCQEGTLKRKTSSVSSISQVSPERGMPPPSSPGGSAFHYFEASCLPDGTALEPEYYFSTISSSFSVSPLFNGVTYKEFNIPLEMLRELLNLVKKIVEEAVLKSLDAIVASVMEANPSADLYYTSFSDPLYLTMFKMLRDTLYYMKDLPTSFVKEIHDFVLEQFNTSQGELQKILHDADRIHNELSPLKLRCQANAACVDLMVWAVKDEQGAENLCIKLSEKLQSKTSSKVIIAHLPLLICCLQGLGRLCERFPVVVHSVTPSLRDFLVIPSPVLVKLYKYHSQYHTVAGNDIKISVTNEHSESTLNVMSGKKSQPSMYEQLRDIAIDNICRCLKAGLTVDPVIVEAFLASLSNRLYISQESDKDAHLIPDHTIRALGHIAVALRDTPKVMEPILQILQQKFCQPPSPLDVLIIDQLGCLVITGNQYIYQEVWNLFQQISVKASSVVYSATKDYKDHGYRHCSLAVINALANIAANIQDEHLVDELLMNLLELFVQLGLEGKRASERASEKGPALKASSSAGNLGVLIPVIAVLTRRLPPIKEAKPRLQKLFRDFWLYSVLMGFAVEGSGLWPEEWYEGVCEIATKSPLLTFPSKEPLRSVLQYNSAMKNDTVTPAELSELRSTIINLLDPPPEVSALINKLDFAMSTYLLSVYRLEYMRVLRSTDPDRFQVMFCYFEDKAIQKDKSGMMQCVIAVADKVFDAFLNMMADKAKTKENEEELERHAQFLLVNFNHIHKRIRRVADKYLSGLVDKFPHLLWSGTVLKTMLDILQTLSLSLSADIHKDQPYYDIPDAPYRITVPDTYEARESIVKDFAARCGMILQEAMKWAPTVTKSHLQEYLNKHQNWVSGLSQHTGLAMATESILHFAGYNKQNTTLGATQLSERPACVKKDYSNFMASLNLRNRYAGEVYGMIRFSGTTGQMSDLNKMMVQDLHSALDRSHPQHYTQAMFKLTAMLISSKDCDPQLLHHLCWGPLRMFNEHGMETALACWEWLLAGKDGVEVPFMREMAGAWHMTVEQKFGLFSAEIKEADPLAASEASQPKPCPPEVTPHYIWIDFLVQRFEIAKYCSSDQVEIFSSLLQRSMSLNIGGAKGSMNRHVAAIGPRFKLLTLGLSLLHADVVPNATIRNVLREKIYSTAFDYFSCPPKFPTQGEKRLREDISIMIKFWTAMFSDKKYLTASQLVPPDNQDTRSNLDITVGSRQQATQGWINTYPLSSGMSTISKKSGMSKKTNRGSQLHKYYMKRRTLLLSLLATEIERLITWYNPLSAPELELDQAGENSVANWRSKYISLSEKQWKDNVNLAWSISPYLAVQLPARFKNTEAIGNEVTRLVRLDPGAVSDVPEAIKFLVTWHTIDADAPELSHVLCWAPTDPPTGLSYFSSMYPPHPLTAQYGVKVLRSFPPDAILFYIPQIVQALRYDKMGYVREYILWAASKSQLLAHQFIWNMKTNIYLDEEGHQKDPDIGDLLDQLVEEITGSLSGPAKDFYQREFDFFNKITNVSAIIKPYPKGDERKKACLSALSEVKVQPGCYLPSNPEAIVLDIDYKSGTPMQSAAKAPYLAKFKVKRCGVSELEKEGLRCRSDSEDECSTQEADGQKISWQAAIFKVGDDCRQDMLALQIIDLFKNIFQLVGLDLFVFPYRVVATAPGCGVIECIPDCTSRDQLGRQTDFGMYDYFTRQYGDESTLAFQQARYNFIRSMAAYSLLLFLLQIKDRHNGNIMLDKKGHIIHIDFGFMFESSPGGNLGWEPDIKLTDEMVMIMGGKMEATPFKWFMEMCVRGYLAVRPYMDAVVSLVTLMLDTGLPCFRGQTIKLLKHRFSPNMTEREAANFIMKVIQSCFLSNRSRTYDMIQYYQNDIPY

Structure (SMILES) | IC50 [1] [µM] | IC50 [2] [µM] | IC50 [3] [µM] | IC50 [4] [µM] | IC50 [5] [µM] | IC50 [6] [µM] | IC50 [7] [µM]
Nc1nc2ccc(-c3ccc(C(F)(F)F)nc3)cc2s1 | 15.8 | 1.58 | 2 | 3.98 | 1 | 1 | > 100
Nc1nc2ccc(-c3ccccc3)cc2s1 | 2.51 | 0.501 | 12.6 | – | – | – | > 100
Nc1nc2ccc(-c3ncccn3)cc2s1 | 15.8 | 6.31 | > 100 | – | 31.6 | 50.1 | 31.6
Nc1nc2ccc(-c3ccncc3)cc2s1 | 2.51 | 1 | – | – | – | – | –
CS(=O)(=O)c1ccc(-c2ccc3nc(N)sc3c2)cn1 | 25.1 | 7.94 | 158 | 39.8 | 10 | 12.6 | 10
CNCc1ccc(-c2ccc3nc(N)sc3c2)cn1 | 2.51 | 3.16 | 63.1 | 79.4 | 50.1 | 63.1 | > 100
CC(C)n1cc(-c2ccc3nc(N)sc3c2)cn1 | 25.1 | 2.51 | 15.8 | – | 3.98 | 20 | 63.1
Nc1nc2ccc(-c3cnn(C4CC4)c3)cc2s1 | 7.94 | 2 | 10 | 10 | 1 | 3.98 | > 100
CNC(=O)c1ccc(-c2ccc3nc(N)sc3c2)cn1 | 3.16 | 2.51 | 2 | – | – | – | 31.6
Nc1nc2ccc(-c3ccc(CO)nc3)cc2s1 | 1.58 | 0.794 | 3.16 | – | – | – | > 100
Cn1cc(-c2ccc3nc(N)sc3c2)cn1 | 2.51 | 1.26 | 7.94 | 15.8 | 2.51 | 7.94 | > 100
Cn1ccc(-c2ccc3nc(N)sc3c2)n1 | 2.51 | 1.26 | 6.31 | 15.8 | 2.51 | 12.6 | 63.1
Cn1nccc1-c1ccc2nc(N)sc2c1 | 12.6 | 1 | 12.6 | 31.6 | 2.51 | 25.1 | > 100
CCn1cc(-c2ccc3nc(N)sc3c2)cn1 | 3.16 | 1.58 | 12.6 | 31.6 | 3.16 | 20 | > 100
Nc1nc2ccc(-c3ccc(=O)[nH]c3)cc2s1 | 3.16 | 3.98 | 25.1 | 50.1 | 10 | 31.6 | 39.8
Nc1nc2ccc(-c3cnccn3)cc2s1 | 7.94 | 6.31 | 2 | 6.31 | 3.98 | 7.94 | > 100
Nc1nc2ccc(-c3ccccn3)cc2s1 | 10 | 2.51 | 10 | – | 12.6 | 79.4 | > 100

Continued, values first:

IC50 [1] [µM] | IC50 [2] [µM] | IC50 [3] [µM] | IC50 [4] [µM] | IC50 [5] [µM] | IC50 [6] [µM] | IC50 [7] [µM] | Structure (SMILES)
0.316 | 0.631 | 3.98 | 6.31 | 1.26 | 10 | 15.8 | Nc1nc2ccc(-c3cc[nH]c(=O)c3)cc2s1
0.631 | 1.58 | 6.31 | 39.8 | 3.98 | 12.6 | > 100 | CCN(C)c1ccc(-c2ccc3nc(N)sc3c2)cn1
1 | 1 | 0.501 | 1.26 | 0.251 | 1.26 | 31.6 | CC(C)Oc1cncc(-c2ccc3nc(N)sc3c2)c1
0.158 | 0.631 | 1.58 | 6.31 | 2 | 3.98 | > 100 | CCOc1ccc(-c2ccc3nc(N)sc3c2)cn1
0.1 | 0.631 | 1.26 | 5.01 | 1 | 2 | > 100 | CCSc1ccc(-c2ccc3nc(N)sc3c2)cn1
1.58 | 0.501 | 1 | 2.51 | 1.26 | 1.26 | > 100 | Cc1ccc(-c2ccc3nc(N)sc3c2)cn1
0.316 | 0.316 | 6.31 | 50.1 | 3.16 | 10 | > 100 | CCn1ccc(-c2ccc3nc(N)sc3c2)cc1=O
0.398 | 3.98 | 0.251 | 0.251 | 0.126 | 0.316 | > 100 | CS(=O)(=O)c1cncc(-c2ccc3nc(N)sc3c2)c1
1.58 | 2 | 12.6 | 12.6 | 1.58 | 12.6 | 25.1 | CCCn1cc(-c2ccc3nc(N)sc3c2)cn1
1 | 0.316 | 2.51 | 15.8 | – | 6.31 | > 100 | COCc1ccc(-c2ccc3nc(N)sc3c2)cn1
0.316 | 1 | 2.51 | 7.94 | 3.16 | 6.31 | > 100 | COCCOc1ccc(-c2ccc3nc(N)sc3c2)cn1
1.26 | 39.8 | 39.8 | 79.4 | 20 | 63.1 | > 100 | CN(C)C(=O)c1ccc(-c2ccc3nc(N)sc3c2)cn1
0.316 | 0.501 | 1.26 | 6.31 | 1.26 | 2 | > 100 | Nc1nc2ccc(-c3ccc(OCCO)nc3)cc2s1
1.58 | 0.631 | 2 | – | – | 1.26 | 31.6 | Nc1nc2ccc(-c3cccnc3)cc2s1
0.501 | 0.316 | 2.51 | 63.1 | – | 5.01 | > 100 | Cn1ccc(-c2ccc3nc(N)sc3c2)cc1=O
0.158 | 0.794 | 7.94 | 25.1 | 2 | 20 | > 100 | Nc1nc2ccc(-c3cnn(Cc4ccccc4)c3)cc2s1
0.631 | 2 | 12.6 | 15.8 | 1.26 | 20 | – | Nc1nc2ccc(-c3cnn(CC4CC4)c3)cc2s1
0.631 | 10 | 25.1 | > 200 | 10 | > 200 | > 100 | COCCOn1ccc(-c2ccc3nc(N)sc3c2)cc1=O
0.0794 | 1.26 | 5.01 | 31.6 | 12.6 | 12.6 | > 100 | CC(C)Oc1ccc(-c2ccc3nc(N)sc3c2)cn1
0.631 | 1 | 2 | 12.6 | 3.98 | 6.31 | 31.6 | CCNc1ccc(-c2ccc3nc(N)sc3c2)cn1
0.631 | 1 | – | – | 0.398 | 0.794 | 25.1 | COc1ccc(-c2ccc3nc(N)sc3c2)cn1
